US20110189311A1, “Highly Absorbable Drug Composition and Method of Producing the Same” (TOYO SUGAR REFINING CO., LTD., priority 2009, published 2011)

How the values were obtained:
[1] = at 37° C.; cited from earlier work
[2] = Oral administration of drug compositions to rats, blood (plasma) drug concentration by HPLC and AUC; assay type: in vivo, wistar rats; conditions: average of five rats
Method: As test animals, 9-week-old male clean wistar rats (five rats for each of drug compositions A to F) were used. […] After the administration, blood was collected from the neck vein of each clean wistar rat at predetermined time intervals and was centrifuged (10000 rpm, 5 min) to obtain plasma. Four hundred microliters of methanol was added to 100 μL of the obtained plasma, and the mixture was mixed for 1 minute with a vortex mixer and was centrifuged (10000 rpm, 5 min). […] One hundred microliters of ethanol was added to the resulting dried substance, and the blood drug concentration was measured using a UV detector (JASCO PU-970) of HPLC (JASCO PU-980). […] Based on the thus-measured blood drug concentrations of the drug compositions, concentration changes with passage of time and areas under blood drug concentration-time curves (AUC) were studied. […] Note that the values of AUC and blood drug concentration in Table 1 and FIGS. 1 to 6 are averages in the five clean wistar rats administered with each of the drug compositions A to F, and “SE” means standard error.

[3] = cited from earlier work

AUC (area under probucol plasma concentration-time curve) ([2]; probucol (PRO), dose 200 mg/kg) [ng·h/mL]	AUC (area under flurbiprofen plasma concentration-time curve) ([2]; flurbiprofen (FP), dose 2 mg/kg) [ng·h/mL]	Structure (SMILES)	solubility in neutral water [1]	bioavailability to human [3]
4940		CC(C)(Sc1cc(C(C)(C)C)c(O)c(C(C)(C)C)c1)Sc1cc(C(C)(C)C)c(O)c(C(C)(C)C)c1 [probucol]	3 to 5 ng/mL water	about 5%
	22060	CC(C(=O)O)c1ccc(-c2ccccc2)c(F)c1 (centres unmarked) [flurbiprofen]	25 μg/mL water	
